The source of these data is ChEMBL document CHEMBL1201862, “PubChem BioAssay data set” (2004).

Some test systems named below: ACHN; TK-10; RPMI-8226; UACC-62; HCT-15; SK-MEL-28; KM12; SK-MEL-5; NCI-H522; OVCAR-4; HOP-62; NCI-H226; SNB-19; HL-60; RXF 393; CAKI-1; OVCAR-3.
What all share (experiment): NCI tumour cell line growth inhibition, 48 h

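Compound exposure: 48 hours, 5 concentrations, 96-well plates. GI50 = concentration required for 50% inhibition of growth.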 Active and inactive are the calls of the source. Cut-off read from the data, not from the text of the source: active = GI50 up to about 1.1 µM and inactive = higher.

`O=[N+]([O-])c1ccc(Cc2nc3ccccc3s2)cc1`: the GI50 was > 100 µM (inactive) in the assay with ACHN; > 100 µM (inactive) with TK-10; 49.4 µM (inactive) in the assay on RPMI-8226; 68.1 µM (inactive) in the assay with UACC-62; over 100 µM in the assay with HCT-15; > 100 µM (inactive) with SK-MEL-28. The GI50 was > 100 µM (inactive) in the assay with KM12; 87.3 µM (inactive) in the assay with SK-MEL-5; 60.4 µM (inactive) with NCI-H522; > 100 µM (inactive) in the assay on OVCAR-4; > 100 µM (inactive) in the assay on HOP-62; > 100 µM (inactive) in the assay with NCI-H226. For the same compound, the GI50 was > 100 µM (inactive) with SNB-19; 63.4 µM (inactive) in the assay with HL-60; > 100 µM (inactive) with RXF 393; > 100 µM (inactive) with CAKI-1; > 100 µM (inactive) in the assay with OVCAR-3.
Consider `CS/C(=C(\S)c1ccccc1)c1ccccc1`, for which the GI50 in the assay on ACHN is > 100 µM (inactive); in the assay on TK-10, > 100 µM (inactive); in the assay with RPMI-8226, > 100 µM (inactive); in the assay on UACC-62 it was > 100 µM (inactive); in the assay with HCT-15 it was over 100 µM; in the assay on SK-MEL-28, > 100 µM (inactive). The GI50 in the assay with KM12 was > 100 µM (inactive); with SK-MEL-5, > 100 µM (inactive); with NCI-H522, > 100 µM (inactive); with OVCAR-4, > 87.1 µM (inactive); in the assay with HOP-62 it was > 100 µM (inactive); in the assay with NCI-H226 it was > 100 µM (inactive). In addition, the GI50 is > 100 µM (inactive) in the assay with SNB-19; > 100 µM (inactive) with HL-60; > 91.2 µM (inactive) with RXF 393; > 100 µM (inactive) in the assay with CAKI-1; > 100 µM (inactive) with OVCAR-3.
Consider `O=C1C2Nc3ccccc3SC2C(=O)N1c1ccccc1C(F)(F)F` (stereo not drawn), for which the GI50 with ACHN was 40.3 µM (inactive); in the assay with TK-10 it was 42.1 µM (inactive); with RPMI-8226, 29 µM (inactive); in the assay with UACC-62 it was 19 µM (inactive); in the assay on HCT-15, 15.9 µM; with SK-MEL-28, 51.9 µM (inactive). For the same compound, the GI50 is 10.1 µM (inactive) in the assay on KM12; 12 µM (inactive) in the assay on SK-MEL-5; 15.3 µM (inactive) with NCI-H522; 43.1 µM (inactive) in the assay on OVCAR-4; 25.4 µM (inactive) in the assay on HOP-62; 43.1 µM (inactive) in the assay on NCI-H226. Moreover, the GI50 in the assay on SNB-19 was 18.1 µM (inactive); in the assay with HL-60, 5.19 µM (inactive); with RXF 393, 7.45 µM (inactive); in the assay on CAKI-1, 24.9 µM (inactive); with OVCAR-3, 22.3 µM (inactive).
Regarding `O=C1[C@@H]2C(c3ccccc3[N+](=O)[O-])=[N+](c3ccccc3)O[C@@H]2C(=O)N1c1ccc(Cc2ccc(N3C(=O)[C@H]4C(c5ccccc5[N+](=O)[O-])=[N+](c5ccccc5)O[C@H]4C3=O)cc2)cc1`, the GI50 with ACHN is > 100 µM (inactive); with TK-10, > 100 µM (inactive); with RPMI-8226 it was > 100 µM (inactive); in the assay on UACC-62, 67.6 µM (inactive); with HCT-15 it was over 100 µM; in the assay on SK-MEL-28, > 100 µM (inactive). The GI50 in the assay on KM12 was > 100 µM (inactive); in the assay with SK-MEL-5 it was 43.1 µM (inactive); in the assay on NCI-H522, > 100 µM (inactive); in the assay on OVCAR-4, > 100 µM (inactive); in the assay with HOP-62 it was > 100 µM (inactive); in the assay on NCI-H226 it was 74.8 µM (inactive). In addition, the GI50 is > 100 µM (inactive) in the assay with SNB-19; > 100 µM (inactive) with HL-60; > 100 µM (inactive) in the assay on RXF 393; 77.8 µM (inactive) with CAKI-1; > 100 µM (inactive) in the assay with OVCAR-3.
